# According to ChEMBL document CHEMBL4371021, “BH3 mimetics derived from Bim-BH3 domain core region show PTP1B inhibitory activity” (Bioorg Med Chem Lett, 2019):
# pIC50, pKd: −log10 of the molar value. Activity calls are given as the source filed them. The calls are words filed in the database; no cut-off is given here. Residues, ends and D or L forms follow the SMILES beside them.
# Experiments:
# [1] = biological target: T1, Tyrosine-protein phosphatase non-receptor type 1 (Homo sapiens) (UniProt P18031); test: (§1) Inhibition of recombinant human N-terminal poly histidine-tagged PTP1B (Glu2 to Asn321 residues) expressed in Escherichia coli at 40 umol/L using pNPP as substrate measured for 4 mins relative to control
# T1 sequence (whole entry): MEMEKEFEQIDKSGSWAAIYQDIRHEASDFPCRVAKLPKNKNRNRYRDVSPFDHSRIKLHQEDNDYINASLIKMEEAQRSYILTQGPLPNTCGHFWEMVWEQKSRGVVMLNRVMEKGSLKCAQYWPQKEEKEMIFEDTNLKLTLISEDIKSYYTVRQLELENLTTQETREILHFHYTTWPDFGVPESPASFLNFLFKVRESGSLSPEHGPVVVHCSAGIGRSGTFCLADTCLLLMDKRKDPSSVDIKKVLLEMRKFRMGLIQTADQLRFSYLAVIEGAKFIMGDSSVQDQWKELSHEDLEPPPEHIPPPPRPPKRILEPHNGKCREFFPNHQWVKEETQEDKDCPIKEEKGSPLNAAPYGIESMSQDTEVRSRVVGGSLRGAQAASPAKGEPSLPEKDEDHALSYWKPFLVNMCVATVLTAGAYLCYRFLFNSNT
# [2] = biological target: T1, Tyrosine-protein phosphatase non-receptor type 1 (Homo sapiens); test: Inhibition of recombinant human N-terminal poly histidine-tagged PTP1B (Glu2 to Asn321 residues) expressed in Escherichia coli at 5 umol/L using pNPP as substrate measured for 4 mins relative to control
# [3] = biological target: Receptor-type tyrosine-protein phosphatase F (Homo sapiens) (UniProt P10586); test: Inhibition of LAR (unknown origin) at 10 umol/L using OMFP as substrate measured for 4 mins relative to control
# [4] = biological target: T2, Tyrosine-protein phosphatase non-receptor type 2 (Homo sapiens) (UniProt P17706); test: Inhibition of human GST-tagged TCPTP (41 to 1075 residues) expressed in Escherichia coli at 10 umol/L using pNPP as substrate measured for 4 mins relative to control
# T2 sequence (whole entry): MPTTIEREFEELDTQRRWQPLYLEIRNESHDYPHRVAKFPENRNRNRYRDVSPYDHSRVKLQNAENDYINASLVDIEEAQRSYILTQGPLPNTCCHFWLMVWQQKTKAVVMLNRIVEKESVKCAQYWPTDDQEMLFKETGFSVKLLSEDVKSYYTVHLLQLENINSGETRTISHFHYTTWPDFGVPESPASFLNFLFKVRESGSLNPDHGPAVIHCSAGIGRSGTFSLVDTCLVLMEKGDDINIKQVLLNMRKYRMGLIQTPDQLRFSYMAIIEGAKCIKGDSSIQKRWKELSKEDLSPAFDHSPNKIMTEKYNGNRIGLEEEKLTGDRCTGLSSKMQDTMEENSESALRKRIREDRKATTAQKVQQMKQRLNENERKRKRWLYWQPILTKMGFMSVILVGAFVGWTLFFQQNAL
# [5] = biological target: T3, Tyrosine-protein phosphatase non-receptor type 1 (Homo sapiens, UniProt P18031); test: Binding affinity to recombinant human N-terminal poly histidine-tagged PTP1B (Glu2 to Asn321 residues) expressed in Escherichia coli by surface plasmon resonance analysis
# T3 sequence (P18031 whole entry): T1 sequence (whole entry)
# [6] = biological target: T2, Tyrosine-protein phosphatase non-receptor type 2 (Homo sapiens); test: Inhibition of human GST-tagged TCPTP (41 to 1075 residues) expressed in Escherichia coli at 2.5 umol/L using pNPP as substrate measured for 4 mins relative to control
# [7] = biological target: Receptor-type tyrosine-protein phosphatase F (Homo sapiens) (UniProt P10586); test: Inhibition of LAR (unknown origin) at 0.5 umol/L using OMFP as substrate measured for 4 mins relative to control
# [8] = biological target: T1, Tyrosine-protein phosphatase non-receptor type 1 (Homo sapiens); test: Inhibition of recombinant human N-terminal poly histidine-tagged PTP1B (Glu2 to Asn321 residues) expressed in Escherichia coli at 2.5 umol/L using pNPP as substrate measured for 4 mins relative to control
# [9] = biological target: T4, Tyrosine-protein phosphatase non-receptor type 11 (Homo sapiens) (UniProt Q06124); test: Inhibition of human GST-tagged SHP2 (1116 to 2162 residues) at 10 umol/L using OMFP as substrate measured for 4 mins relative to control
# T4 sequence (whole entry): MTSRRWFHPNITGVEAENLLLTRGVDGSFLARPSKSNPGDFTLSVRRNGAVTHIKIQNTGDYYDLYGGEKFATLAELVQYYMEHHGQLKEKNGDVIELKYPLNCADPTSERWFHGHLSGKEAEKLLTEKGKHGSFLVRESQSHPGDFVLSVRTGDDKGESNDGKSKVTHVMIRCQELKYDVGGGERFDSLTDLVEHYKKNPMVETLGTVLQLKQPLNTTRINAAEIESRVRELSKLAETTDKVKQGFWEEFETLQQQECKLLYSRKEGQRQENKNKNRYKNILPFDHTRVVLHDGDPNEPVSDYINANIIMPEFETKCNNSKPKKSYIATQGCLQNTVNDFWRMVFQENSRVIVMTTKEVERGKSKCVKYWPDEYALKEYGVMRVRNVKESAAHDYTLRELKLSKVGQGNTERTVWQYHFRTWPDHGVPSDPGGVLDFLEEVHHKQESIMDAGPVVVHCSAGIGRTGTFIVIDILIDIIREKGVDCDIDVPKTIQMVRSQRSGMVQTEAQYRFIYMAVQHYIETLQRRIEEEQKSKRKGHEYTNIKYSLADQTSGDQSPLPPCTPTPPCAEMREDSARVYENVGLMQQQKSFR
# [10] = biological target: T4, Tyrosine-protein phosphatase non-receptor type 11 (Homo sapiens); test: Inhibition of human GST-tagged SHP2 (1116 to 2162 residues) at 2.5 umol/L using OMFP as substrate measured for 4 mins relative to control
# HepG2 [11] = test: Inhibition of PTP1B expression in palmitic acid-induced insulin resistant human HepG2 cells at 0.1 to 10 uM by western blot analysis; type: functional, cell-based
# [12] = biological target: T2, Tyrosine-protein phosphatase non-receptor type 2 (Homo sapiens); test: Inhibition of human GST-tagged TCPTP (41 to 1075 residues) expressed in Escherichia coli at 0.5 umol/L using pNPP as substrate measured for 4 mins relative to control
# HepG2 [13] = test: Cytotoxicity against human HepG2 cells assessed as effect on cell viability at 0.1 to 10 umol/L after 24 hrs by MTT assay; type: cell-based; conditions: hepg2, 24 h
# [14] = biological target: T1, Tyrosine-protein phosphatase non-receptor type 1 (Homo sapiens); test: Inhibition of recombinant human N-terminal poly histidine-tagged PTP1B (Glu2 to Asn321 residues) expressed in Escherichia coli at 0.5 umol/L using pNPP as substrate measured for 4 mins relative to control
# [15] = biological target: T1, Tyrosine-protein phosphatase non-receptor type 1 (Homo sapiens); test: Binding affinity to recombinant human N-terminal poly histidine-tagged PTP1B (Glu2 to Asn321 residues) expressed in Escherichia coli assessed as association rate constant by surface plasmon resonance analysis
# [16] = biological target: T1, Tyrosine-protein phosphatase non-receptor type 1 (Homo sapiens); test: Inhibition of recombinant human N-terminal poly histidine-tagged PTP1B (Glu2 to Asn321 residues) expressed in Escherichia coli at 20 umol/L using pNPP as substrate measured for 4 mins relative to control
# [17] = biological target: Receptor-type tyrosine-protein phosphatase F (Homo sapiens) (UniProt P10586); test: Inhibition of LAR (unknown origin) at 5 umol/L using OMFP as substrate measured for 4 mins relative to control
# [18] = biological target: T3, Tyrosine-protein phosphatase non-receptor type 1; test: Inhibition of recombinant human N-terminal poly histidine-tagged PTP1B (Glu2 to Asn321 residues) expressed in Escherichia coli using pNPP as substrate measured for 4 mins
# [19] = biological target: Tyrosine-protein phosphatase non-receptor type 6 (Homo sapiens) (UniProt P29350); test: Inhibition of SHP1 (unknown origin) at 20 umol/L using OMFP as substrate measured for 4 mins relative to control
# [20] = biological target: Receptor-type tyrosine-protein phosphatase F (Homo sapiens) (UniProt P10586); test: Inhibition of LAR (unknown origin) at 2.5 umol/L using OMFP as substrate measured for 4 mins relative to control
# [21] = biological target: T2, Tyrosine-protein phosphatase non-receptor type 2 (Homo sapiens); test: Inhibition of human GST-tagged TCPTP (41 to 1075 residues) expressed in Escherichia coli at 20 umol/L using pNPP as substrate measured for 4 mins relative to control
# [22] = biological target: Tyrosine-protein phosphatase non-receptor type 6 (Homo sapiens) (UniProt P29350); test: Inhibition of SHP1 (unknown origin) at 0.5 umol/L using OMFP as substrate measured for 4 mins relative to control
# [23] = biological target: Tyrosine-protein phosphatase non-receptor type 6 (Homo sapiens) (UniProt P29350); test: Inhibition of SHP1 (unknown origin) at 10 umol/L using OMFP as substrate measured for 4 mins relative to control
# [24] = biological target: T4, Tyrosine-protein phosphatase non-receptor type 11 (Homo sapiens); test: Inhibition of human GST-tagged SHP2 (1116 to 2162 residues) at 20 umol/L using OMFP as substrate measured for 4 mins relative to control
# [25] = biological target: T2, Tyrosine-protein phosphatase non-receptor type 2 (Homo sapiens); test: Inhibition of human GST-tagged TCPTP (41 to 1075 residues) expressed in Escherichia coli at 1 umol/L using pNPP as substrate measured for 4 mins relative to control
# [26] = biological target: T1, Tyrosine-protein phosphatase non-receptor type 1 (Homo sapiens); test: Inhibition of recombinant human N-terminal poly histidine-tagged PTP1B (Glu2 to Asn321 residues) expressed in Escherichia coli at 1 umol/L using pNPP as substrate measured for 4 mins relative to control
# [27] = biological target: Receptor-type tyrosine-protein phosphatase F (Homo sapiens) (UniProt P10586); test: Inhibition of LAR (unknown origin) at 1 umol/L using OMFP as substrate measured for 4 mins relative to control
# [28] = biological target: T4, Tyrosine-protein phosphatase non-receptor type 11 (Homo sapiens); test: Inhibition of human GST-tagged SHP2 (1116 to 2162 residues) at 1 umol/L using OMFP as substrate measured for 4 mins relative to control
# [29] = biological target: Tyrosine-protein phosphatase non-receptor type 6 (Homo sapiens) (UniProt P29350); test: Inhibition of SHP1 (unknown origin) at 5 umol/L using OMFP as substrate measured for 4 mins relative to control
# [30] = biological target: T2, Tyrosine-protein phosphatase non-receptor type 2 (Homo sapiens); test: Inhibition of human GST-tagged TCPTP (41 to 1075 residues) expressed in Escherichia coli at 5 umol/L using pNPP as substrate measured for 4 mins relative to control
# HepG2 [31] = test: Induction of insulin-stimulated 2-NBDG uptake in palmitic acid-induced insulin resistant human HepG2 cells at 1 to 10 umol/L preincubated for 24 hrs followed by insulin stimulation and measured after 30 mins by fluorescence assay; type: functional, cell-based
# [32] = biological target: T4, Tyrosine-protein phosphatase non-receptor type 11 (Homo sapiens); test: Inhibition of human GST-tagged SHP2 (1116 to 2162 residues) at 0.5 umol/L using OMFP as substrate measured for 4 mins relative to control
# [33] = biological target: T1, Tyrosine-protein phosphatase non-receptor type 1 (Homo sapiens); test: Binding affinity to recombinant human N-terminal poly histidine-tagged PTP1B (Glu2 to Asn321 residues) expressed in Escherichia coli assessed as dissociation rate constant by surface plasmon resonance analysis
# [34] = biological target: Tyrosine-protein phosphatase non-receptor type 6 (Homo sapiens) (UniProt P29350); test: Inhibition of SHP1 (unknown origin) at 2.5 umol/L using OMFP as substrate measured for 4 mins relative to control
# [35] = biological target: T1, Tyrosine-protein phosphatase non-receptor type 1 (Homo sapiens); test: Inhibition of recombinant human N-terminal poly histidine-tagged PTP1B (Glu2 to Asn321 residues) expressed in Escherichia coli at 10 umol/L using pNPP as substrate measured for 4 mins relative to control
# [36] = biological target: Tyrosine-protein phosphatase non-receptor type 6 (Homo sapiens) (UniProt P29350); test: Inhibition of SHP1 (unknown origin) at 1 umol/L using OMFP as substrate measured for 4 mins relative to control
# [37] = biological target: Receptor-type tyrosine-protein phosphatase F (Homo sapiens) (UniProt P10586); test: Inhibition of LAR (unknown origin) at 20 umol/L using OMFP as substrate measured for 4 mins relative to control
# [38] = biological target: T4, Tyrosine-protein phosphatase non-receptor type 11 (Homo sapiens); test: Inhibition of human GST-tagged SHP2 (1116 to 2162 residues) at 5 umol/L using OMFP as substrate measured for 4 mins relative to control
# [39] = biological target: Tyrosine-protein phosphatase non-receptor type 1 (Homo sapiens) (UniProt P18031); test: as §1; remark: listed apart in the source
# Sequence of Receptor-type tyrosine-protein phosphatase F (Homo sapiens) (P10586 whole entry, the tested form may be a part): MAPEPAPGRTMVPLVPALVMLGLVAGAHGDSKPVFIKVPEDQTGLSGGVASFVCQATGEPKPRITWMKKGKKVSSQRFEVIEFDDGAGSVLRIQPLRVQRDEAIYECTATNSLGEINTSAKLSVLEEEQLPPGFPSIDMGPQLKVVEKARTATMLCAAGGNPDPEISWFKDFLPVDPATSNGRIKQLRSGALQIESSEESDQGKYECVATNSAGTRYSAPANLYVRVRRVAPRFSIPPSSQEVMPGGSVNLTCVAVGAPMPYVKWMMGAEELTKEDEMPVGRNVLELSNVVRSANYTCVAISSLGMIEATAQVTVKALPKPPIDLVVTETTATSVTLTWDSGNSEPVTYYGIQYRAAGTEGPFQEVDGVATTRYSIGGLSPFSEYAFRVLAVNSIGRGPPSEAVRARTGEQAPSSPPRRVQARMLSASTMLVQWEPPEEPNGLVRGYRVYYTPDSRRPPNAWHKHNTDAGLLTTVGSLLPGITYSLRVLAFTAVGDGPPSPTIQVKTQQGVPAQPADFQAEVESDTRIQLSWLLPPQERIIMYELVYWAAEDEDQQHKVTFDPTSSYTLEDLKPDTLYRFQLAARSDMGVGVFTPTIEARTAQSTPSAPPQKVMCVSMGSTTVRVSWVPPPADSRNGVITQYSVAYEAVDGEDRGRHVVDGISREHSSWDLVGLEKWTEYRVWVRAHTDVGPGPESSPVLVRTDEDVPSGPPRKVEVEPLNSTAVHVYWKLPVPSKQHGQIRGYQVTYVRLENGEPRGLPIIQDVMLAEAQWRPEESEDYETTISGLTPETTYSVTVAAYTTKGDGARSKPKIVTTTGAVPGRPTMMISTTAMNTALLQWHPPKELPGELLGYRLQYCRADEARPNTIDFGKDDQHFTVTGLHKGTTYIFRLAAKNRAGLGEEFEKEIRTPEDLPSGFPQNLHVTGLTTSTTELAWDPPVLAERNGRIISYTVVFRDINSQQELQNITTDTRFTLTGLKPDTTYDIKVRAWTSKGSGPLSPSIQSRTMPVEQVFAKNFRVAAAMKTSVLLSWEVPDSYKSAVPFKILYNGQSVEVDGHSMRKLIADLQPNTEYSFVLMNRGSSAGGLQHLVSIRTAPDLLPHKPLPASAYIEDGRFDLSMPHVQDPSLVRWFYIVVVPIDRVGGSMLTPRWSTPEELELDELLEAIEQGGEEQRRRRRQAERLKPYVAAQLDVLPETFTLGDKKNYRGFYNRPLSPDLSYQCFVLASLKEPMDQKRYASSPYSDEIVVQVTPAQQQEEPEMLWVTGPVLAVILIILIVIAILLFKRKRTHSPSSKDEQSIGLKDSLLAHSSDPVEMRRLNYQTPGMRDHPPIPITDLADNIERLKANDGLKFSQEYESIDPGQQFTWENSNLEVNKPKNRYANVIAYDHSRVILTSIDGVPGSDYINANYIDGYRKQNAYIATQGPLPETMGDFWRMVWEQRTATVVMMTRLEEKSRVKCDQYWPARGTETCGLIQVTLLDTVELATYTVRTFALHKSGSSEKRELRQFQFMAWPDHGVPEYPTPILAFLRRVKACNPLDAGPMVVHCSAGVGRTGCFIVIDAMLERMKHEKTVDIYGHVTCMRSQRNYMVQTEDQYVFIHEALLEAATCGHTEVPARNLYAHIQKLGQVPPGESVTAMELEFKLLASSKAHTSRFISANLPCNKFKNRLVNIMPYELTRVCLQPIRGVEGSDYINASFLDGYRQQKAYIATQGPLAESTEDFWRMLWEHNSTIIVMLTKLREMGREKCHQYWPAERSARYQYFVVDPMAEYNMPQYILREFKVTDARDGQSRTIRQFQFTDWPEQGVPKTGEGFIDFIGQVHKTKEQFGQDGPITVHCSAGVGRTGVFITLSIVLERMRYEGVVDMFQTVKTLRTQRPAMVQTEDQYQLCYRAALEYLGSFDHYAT
# Sequence of Tyrosine-protein phosphatase non-receptor type 6 (Homo sapiens) (P29350 whole entry, the tested form may be a part): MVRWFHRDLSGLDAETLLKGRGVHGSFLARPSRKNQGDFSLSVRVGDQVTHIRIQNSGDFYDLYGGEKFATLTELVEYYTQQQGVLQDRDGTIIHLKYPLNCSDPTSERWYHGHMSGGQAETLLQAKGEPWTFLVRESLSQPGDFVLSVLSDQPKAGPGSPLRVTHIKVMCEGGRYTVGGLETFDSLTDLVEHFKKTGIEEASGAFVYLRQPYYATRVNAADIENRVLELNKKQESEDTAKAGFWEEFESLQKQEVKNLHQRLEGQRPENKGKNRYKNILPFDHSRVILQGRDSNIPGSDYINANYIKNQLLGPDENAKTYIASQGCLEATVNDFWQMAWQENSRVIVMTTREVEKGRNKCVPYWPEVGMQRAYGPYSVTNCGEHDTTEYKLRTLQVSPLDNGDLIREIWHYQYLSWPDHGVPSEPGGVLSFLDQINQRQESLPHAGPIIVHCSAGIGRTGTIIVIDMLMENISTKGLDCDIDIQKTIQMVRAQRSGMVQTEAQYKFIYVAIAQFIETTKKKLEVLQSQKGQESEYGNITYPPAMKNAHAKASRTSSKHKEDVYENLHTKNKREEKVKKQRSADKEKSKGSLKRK
compound,measurement,setting,value
Ac-IAQELRRIGDEFNA-NH2,inhibition,[1],3.31%
CCCCCCCCCCCCCCCC(=O)N[C@H](C(=O)N[C@@H](C)C(=O)N[C@@H](CCC(N)=O)C(=O)N[C@@H](CCC(=O)O)C(=O)N[C@@H](CC(C)C)C(=O)N[C@@H](CCCNC(=N)N)C(=O)N[C@@H](CCCNC(=N)N)C(=O)N[C@H](C(=O)NCC(=O)N[C@@H](CC(=O)O)C(=O)N[C@@H](CCC(=O)O)C(=O)N[C@@H](Cc1ccccc1)C(N)=O)[C@@H](C)CC)[C@@H](C)CC (HELM PEPTIDE1{[CCCCCCCCCCCCCCCC(=O)[*:2]].I.A.Q.E.L.R.R.I.G.D.E.F.[am]}$$$$V2.0),inhibition,[2],89.3%
same,inhibition,[1],98%
same,inhibition,[3],3.36%
same,inhibition,[4],12.2%
same,pKd,[5],8.08
same,inhibition,[6],8.22%
same,inhibition,[7],2.02%
same,inhibition,[8],80.6%
same,inhibition,[9],2.77%
same,inhibition,[10],3.52%
same,inhibition,HepG2 [11],Active
same,inhibition,[12],5.25%
same,Activity,HepG2 [13],Non-Toxic
same,inhibition,[14],8.68%
same,Ka,[15],2.17 ×10⁴ /Ms
same,inhibition,[16],93.7%
same,inhibition,[17],1.52%
same,pIC50,[18],5.92
same,inhibition,[19],9.22%
same,inhibition,[20],2.33%
same,inhibition,[21],35.2%
same,inhibition,[22],2.03%
same,inhibition,[23],3.89%
same,inhibition,[24],10.6%
same,inhibition,[25],6.22%
same,inhibition,[26],47.2%
same,inhibition,[27],3.88%
same,inhibition,[28],2.02%
same,inhibition,[29],2.22%
same,inhibition,[30],8.63%
same,Activity,HepG2 [31],Active
same,inhibition,[32],0.96%
same,Kdiss,[33],1.82 ×10⁻⁴ /s
same,inhibition,[34],2.88%
same,inhibition,[35],92%
same,inhibition,[36],1.36%
same,inhibition,[37],1.73%
same,inhibition,[38],2.83%
SODIUM ORTHOVANAD,inhibition,[39],75.4%
